Reference: patent US12679843B2, “Pyrrolopyrimidine amines as complement inhibitors” (BioCryst Pharmaceuticals, Inc., priority 2020, dated 2026)

Molecular target: Factor D (Homo sapiens, UniProt P00746)
Test: Factor D esterolytic assay (Z-Lys-SBzl thioester substrate, DTNB, 405 nm)
Assay type: biochemical
Details: substrate Z-Lys-SBzl 1.29 mM, 100 mM HEPES, 500 mM NaCl, pH 7.5, 10% DMSO, tested a minimum of three times
In short: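 Human Factor D hydrolysis of Z-Lys-SBzl (1.29 mM) monitored at 405 nm via DTNB thiol detection for 600 s, 690 nm background subtracted. Buffer 100 mM HEPES, 500 mM NaCl, pH 7.5, 10% DMSO; substrate added immediately or after room-temperature preincubation. IC50 from percent inhibition of rate, at least three tests.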

Sequence of Factor D (P00746 26-253): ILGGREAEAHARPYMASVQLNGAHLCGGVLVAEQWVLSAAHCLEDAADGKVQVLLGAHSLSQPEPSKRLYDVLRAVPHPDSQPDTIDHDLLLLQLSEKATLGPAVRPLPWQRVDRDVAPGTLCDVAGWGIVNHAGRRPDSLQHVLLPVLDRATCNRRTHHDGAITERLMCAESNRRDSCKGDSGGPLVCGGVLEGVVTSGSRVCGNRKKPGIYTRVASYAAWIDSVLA

| SMILES | IC50 |
| --- | --- |
| COC(=O)c1cnc2c(ccn2CC(=O)N2[C@@H]3C[C@@H]3C[C@H]2C(=O)Nc2cccc(Br)n2)c1 [Compound 127d, methyl 1-(2-((1R,3S,5R)-3-((6-bromopyridin-2-yl)carbamoyl)-2-azabicyclo[3.1.0]hexan-2-yl)-2-oxoethyl)-1H-pyrrolo[2,3-b]pyridine-5-carboxylate] | > 1 µM |
| O=C(O)c1cnc2c(ccn2CC(=O)N2[C@@H]3C[C@@H]3C[C@H]2C(=O)Nc2cccc(Br)n2)c1 [Compound 128a, 1-(2-((1R,3S,5R)-3-((6-bromopyridin-2-yl)carbamoyl)-2-azabicyclo[3.1.0]hexan-2-yl)-2-oxoethyl)-1H-pyrrolo[2,3-b]pyridine-5-carboxylic acid] | > 1 µM |
| Cc1nc(N)c2ccn(CC(=O)N3C[C@H](F)C[C@H]3C(=O)NCc3cccc(Cl)c3F)c2n1 [Compound 132d, (2S,4R)-1-(2-(4-amino-2-methyl-7H-pyrrolo[2,3-d]pyrimidin-7-yl)acetyl)-N-(3-chloro-2-fluorobenzyl)-4-fluoropyrrolidine-2-carboxamide] | > 1 µM |
| Nc1ncnc2c1c(-c1ccccc1Cl)cn2CC(=O)N1C[C@H](F)C[C@H]1C(=O)NCc1cccc(Cl)c1F [Compound 136a, (2S,4R)-1-(2-(4-amino-5-(2-chlorophenyl)-7H-pyrrolo[2,3-d]pyrimidin-7-yl)acetyl)-N-(3-chloro-2-fluorobenzyl)-4-fluoropyrrolidine-2-carboxamide] | > 1 µM |
| NC(=O)c1cn(CC(=O)N2C[C@H](F)C[C@H]2C(=O)NCc2cccc(Cl)c2F)c2ncnc(N)c12 [Compound 140a, 4-amino-7-(2-((2S,4R)-2-((3-chloro-2-fluorobenzyl)carbamoyl)-4-fluoropyrrolidin-1-yl)-2-oxoethyl)-7H-pyrrolo[2,3-d]pyrimidine-5-carboxamide] | > 1 µM |
| NCc1cn(CC(=O)N2C[C@H](F)C[C@H]2C(=O)NCc2cccc(Cl)c2F)c2ncnc(N)c12 [Compound 141a, (2S,4R)-1-(2-(4-amino-5-(aminomethyl)-7H-pyrrolo[2,3-d]pyrimidin-7-yl)acetyl)-N-(3-chloro-2-fluorobenzyl)-4-fluoropyrrolidine-2-carboxamide] | > 1 µM |
| Cc1nc(N)c2cnn(CC(=O)N3C[C@H](F)C[C@H]3C(=O)NCc3cccc(Cl)c3F)c2n1 [Compound 142d, (2S,4R)-1-(2-(4-amino-6-methyl-1H-pyrazolo[3,4-d]pyrimidin-1-yl)acetyl)-N-(3-chloro-2-fluorobenzyl)-4-fluoropyrrolidine-2-carboxamide] | > 1 µM |
| COC(=O)c1cn(CC(=O)N2C[C@H](F)C[C@H]2C(=O)NCc2cccc(Cl)c2F)c2ncnc(N)c12 [Compound 146a, methyl 4-amino-7-(2-((2S,4R)-2-((3-chloro-2-fluorobenzyl)carbamoyl)-4-fluoropyrrolidin-1-yl)-2-oxoethyl)-7H-pyrrolo[2,3-d]pyrimidine-5-carboxylate] | > 1 µM |
| COC(=O)c1cnc2c(ccn2CC(=O)N2C[C@H](F)C[C@H]2C(=O)NCc2cccc(Cl)c2F)c1N [Compound 147a, methyl 4-amino-1-(2-((2S,4R)-2-((3-chloro-2-fluorobenzyl)carbamoyl)-4-fluoropyrrolidin-1-yl)-2-oxoethyl)-1H-pyrrolo[2,3-b]pyridine-5-carboxylate] | > 1 µM |
| Nc1ncnc2c1c(-c1ccc[nH]1)cn2CC(=O)N1C[C@H](F)C[C@H]1C(=O)NCc1cccc(Cl)c1F [Compound 149b, (2S,4R)-1-(2-(4-amino-5-(1H-pyrrol-2-yl)-7H-pyrrolo[2,3-d]pyrimidin-7-yl)acetyl)-N-(3-chloro-2-fluorobenzyl)-4-fluoropyrrolidine-2-carboxamide] | 0.1 to 1 µM |
| Cc1cn(CC(=O)N2C[C@H](F)C[C@H]2C(=O)NCc2cccc(Cl)c2F)c2ncnc(N)c12 [Compound 150d, (2S,4R)-1-(2-(4-amino-5-methyl-7H-pyrrolo[2,3-d]pyrimidin-7-yl)acetyl)-N-(3-chloro-2-fluorobenzyl)-4-fluoropyrrolidine-2-carboxamide] | 0.1 to 1 µM |
| Nc1c(C(=O)O)cnc2c1ccn2CC(=O)N1C[C@H](F)C[C@H]1C(=O)NCc1cccc(Cl)c1F [Compound 151a, 4-amino-1-(2-((2S,4R)-2-((3-chloro-2-fluorobenzyl)carbamoyl)-4-fluoropyrrolidin-1-yl)-2-oxoethyl)-1H-pyrrolo[2,3-b]pyridine-5-carboxylic acid] | 0.1 to 1 µM |

Second part, the molecule after the results:

| IC50 | SMILES |
| --- | --- |
| 0.1 to 1 µM | Nc1ncnc2c1c(F)cn2CC(=O)N1C[C@H](F)C[C@H]1C(=O)NCc1cccc(Cl)c1F [Compound 125d, (2S,4R)-1-(2-(4-amino-5-fluoro-7H-pyrrolo[2,3-d]pyrimidin-7-yl)acetyl)-N-(3-chloro-2-fluorobenzyl)-4-fluoropyrrolidine-2-carboxamide] |
| 0.1 to 1 µM | Nc1ncnc2c1c(-c1c[nH]c3ccccc13)cn2CC(=O)N1C[C@H](F)C[C@H]1C(=O)NCc1cccc(Cl)c1F [Compound 126f, (2S,4R)-1-(2-(4-amino-5-(1H-indol-3-yl)-7H-pyrrolo[2,3-d]pyrimidin-7-yl)acetyl)-N-(3-chloro-2-fluorobenzyl)-4-fluoropyrrolidine-2-carboxamide] |
| 0.1 to 1 µM | Nc1cn(CC(=O)N2[C@@H]3C[C@@H]3C[C@H]2C(=O)Nc2cccc(Br)n2)c2ncncc12 [Compound 129f, (1R,3S,5R)-2-(2-(5-amino-7H-pyrrolo[2,3-d]pyrimidin-7-yl)acetyl)-N-(6-bromopyridin-2-yl)-2-azabicyclo[3.1.0]hexane-3-carboxamide] |
| 0.1 to 1 µM | N#Cc1cn(CC(=O)N2C[C@H](F)C[C@H]2C(=O)NCc2cccc(Cl)c2F)c2ncnc(N)c12 [Compound 130e, (2S,4R)-1-(2-(4-amino-5-cyano-7H-pyrrolo[2,3-d]pyrimidin-7-yl)acetyl)-N-(3-chloro-2-fluorobenzyl)-4-fluoropyrrolidine-2-carboxamide] |
| 0.1 to 1 µM | Nc1ccnc2c1ccn2CC(=O)N1C[C@H](F)C[C@H]1C(=O)NCc1cccc(Cl)c1F [Compound 131e, (2S,4R)-1-(2-(4-amino-1H-pyrrolo[2,3-b]pyridin-1-yl)acetyl)-N-(3-chloro-2-fluorobenzyl)-4-fluoropyrrolidine-2-carboxamide] |
| < 0.1 µM | Nc1ncnc2c1c(-c1cc3ccccc3[nH]1)cn2CC(=O)N1C[C@H](F)C[C@H]1C(=O)NCc1cccc(Cl)c1F [Compound 133b, (2S,4R)-1-(2-(4-amino-5-(1H-indol-2-yl)-7H-pyrrolo[2,3-d]pyrimidin-7-yl)acetyl)-N-(3-chloro-2-fluorobenzyl)-4-fluoropyrrolidine-2-carboxamide] |
| < 0.1 µM | Nc1ncnc2c1c(-c1cccc3cc[nH]c13)cn2CC(=O)N1C[C@H](F)C[C@H]1C(=O)NCc1cccc(Cl)c1F [Compound 134b, (2S,4R)-1-(2-(4-amino-5-(1H-indol-7-yl)-7H-pyrrolo[2,3-d]pyrimidin-7-yl)acetyl)-N-(3-chloro-2-fluorobenzyl)-4-fluoropyrrolidine-2-carboxamide] |
| 0.1 to 1 µM | Nc1ncnc2c1c(-c1ccccc1)cn2CC(=O)N1C[C@H](F)C[C@H]1C(=O)NCc1cccc(Cl)c1F [Compound 135a, (2S,4R)-1-(2-(4-amino-5-phenyl-7H-pyrrolo[2,3-d]pyrimidin-7-yl)acetyl)-N-(3-chloro-2-fluorobenzyl)-4-fluoropyrrolidine-2-carboxamide] |
| < 0.1 µM | Nc1ncnc2c1c(-c1ccc3cc[nH]c3c1)cn2CC(=O)N1C[C@H](F)C[C@H]1C(=O)NCc1cccc(Cl)c1F [Compound 137b, (2S,4R)-1-(2-(4-amino-5-(1H-indol-6-yl)-7H-pyrrolo[2,3-d]pyrimidin-7-yl)acetyl)-N-(3-chloro-2-fluorobenzyl)-4-fluoropyrrolidine-2-carboxamide] |
| 0.1 to 1 µM | Nc1ncnc2c(CC(=O)N3C[C@H](F)C[C@H]3C(=O)NCc3cccc(Cl)c3F)cccc12 [Compound 138d, (2S,4R)-1-(2-(4-aminoquinazolin-8-yl)acetyl)-N-(3-chloro-2-fluorobenzyl)-4-fluoropyrrolidine-2-carboxamide] |
| < 0.1 µM | Nc1ncnc2c1c(-c1ccc3[nH]ccc3c1)cn2CC(=O)N1C[C@H](F)C[C@H]1C(=O)NCc1cccc(Cl)c1F [Compound 139b, (2S,4R)-1-(2-(4-amino-5-(1H-indol-5-yl)-7H-pyrrolo[2,3-d]pyrimidin-7-yl)acetyl)-N-(3-chloro-2-fluorobenzyl)-4-fluoropyrrolidine-2-carboxamide] |
| 0.1 to 1 µM | Nc1ncnc2c1c(-c1ccoc1)cn2CC(=O)N1C[C@H](F)C[C@H]1C(=O)NCc1cccc(Cl)c1F [Compound 143d, (2S,4R)-1-(2-(4-amino-5-(furan-3-yl)-7H-pyrrolo[2,3-d]pyrimidin-7-yl)acetyl)-N-(3-chloro-2-fluorobenzyl)-4-fluoropyrrolidine-2-carboxamide] |
| 0.1 to 1 µM | NC(=O)c1cnc2c(ccn2CC(=O)N2C[C@H](F)C[C@H]2C(=O)NCc2cccc(Cl)c2F)c1N [Compound 144g, 4-amino-1-(2-((2S,4R)-2-((3-chloro-2-fluorobenzyl)carbamoyl)-4-fluoropyrrolidin-1-yl)-2-oxoethyl)-1H-pyrrolo[2,3-b]pyridine-5-carboxamide] |
| 0.1 to 1 µM | O=C(NCc1cccc(Cl)c1F)[C@@H]1C[C@@H](F)CN1C(=O)Cn1ccc2c3[nH]c(=O)[nH]c(=O)c3cnc21 [Compound 145a, (2S,4R)—N-(3-chloro-2-fluorobenzyl)-1-(2-(2,4dioxo-3,4dihydro-1H-pyrrolo[3′,2′:5,6]pyrido[4,3-d]pyrimidin-7 (2H)-yl)acetyl)-4-fluoropyrrolidine-2-carboxamide] |
| 0.1 to 1 µM | Nc1ncnc2c1c(I)cn2CC(=O)N1C[C@H](F)C[C@H]1C(=O)NCc1cccc(Cl)c1F [Compound 148d, (2S,4R)-1-(2-(4-amino-5-iodo-7H-pyrrolo[2,3-d]pyrimidin-7-yl)acetyl)-N-(3-chloro-2-fluorobenzyl)-4-fluoropyrrolidine-2-carboxamide] |
